Laboratory results taken from ChEMBL document CHEMBL1141704, “Substituted ajoenes as novel anti-cancer agents” (Bioorg Med Chem Lett, 2008).

Test system: Fibroblast
Assay: Anticancer activity against cobalt radiation CT-1 transformed fibroblasts
Format: functional, cell-based

SMILES	IC50 [µM]
C=CCSS/C=C/C[S+]([O-])C(C)(C)C (stereo not drawn)	33.1
C=CCSS/C=C\C[S+]([O-])CCCO (stereo not drawn)	22.8
C=CCSS/C=C\C[S+]([O-])CCCOCc1ccc(OC)cc1 (stereo not drawn)	21.7
C=CCSS/C=C/C[S+]([O-])CCCOCc1ccc(OC)cc1 (stereo not drawn)	23.5
C=CCSS/C=C/C[S+]([O-])Cc1ccccc1 (stereo not drawn)	16.6
C=CCSS/C=C/C[S+]([O-])CCC (stereo not drawn)	26.7
C=CCSS/C=C/C[S+]([O-])CCCN1C(=O)c2ccccc2C1=O (stereo not drawn)	95.9
C=CCSS/C=C\C[S+]([O-])CC=C (stereo not drawn) [(Z)-Ajoene]	15.5
C=CCSS/C=C/C[S+]([O-])CC=C (stereo not drawn) [AJOENE]	17.6
C=CCSS/C=C\C[S+]([O-])CCCN1C(=O)c2ccccc2C1=O (stereo not drawn)	34.6
C=CCSS/C=C/C[S+]([O-])CCCO (stereo not drawn)	23.1
C=CCSS/C=C/C[S+]([O-])Cc1ccc(OC)cc1 (stereo not drawn)	11.2
C=CCSS/C=C\C[S+]([O-])CCC (stereo not drawn)	17
